Source: patent publication US20230073461A1, “C[…]” (BioNTech SE, priority 2020, published 2023)

What was measured:
[1] = Single dose IV PK, metabolism and excretion of LNP lipids in rats; format: in vivo; conditions: for drop of concentration in liver / drop of concentration in plasma: two weeks
Protocol: A single dose PK study of ALC-0315 and […] following intravenous (IV) bolus injection of a nanoparticle formulation in rats was conducted to assess the PK and metabolism of lipid excipients ALC-0315 and ALC-0159.
(§1) In vitro metabolism of ALC-0315 and ALC-0159 was evaluated in blood, liver microsomes, S9 fractions, and hepatocytes from mice, rats, monkeys, and humans. In vivo metabolism was examined in rat plasma, urine, faeces, and liver samples from the PK study. […] ALC-0315 and ALC-0159 are apparently metabolised by hydrolytic metabolism of the ester and amide functionalities, respectively, and this hydrolytic metabolism is observed across the species evaluated.

[2] = In vitro metabolism in blood, liver microsomes, S9 fractions, hepatocytes; format: in vitro ADME, mice, rats, monkeys, and humans; conditions: rat samples
Protocol: as §1

[3] = molecular target: human ACE2 peptidase domain (amino acids 1-615 of human ACE2 with C-terminal His-10 and Avi tags) (human) (UniProt Q9BYF1)
Sequence of UniProt Q9BYF1 (Q9BYF1 18-615 limits assumed): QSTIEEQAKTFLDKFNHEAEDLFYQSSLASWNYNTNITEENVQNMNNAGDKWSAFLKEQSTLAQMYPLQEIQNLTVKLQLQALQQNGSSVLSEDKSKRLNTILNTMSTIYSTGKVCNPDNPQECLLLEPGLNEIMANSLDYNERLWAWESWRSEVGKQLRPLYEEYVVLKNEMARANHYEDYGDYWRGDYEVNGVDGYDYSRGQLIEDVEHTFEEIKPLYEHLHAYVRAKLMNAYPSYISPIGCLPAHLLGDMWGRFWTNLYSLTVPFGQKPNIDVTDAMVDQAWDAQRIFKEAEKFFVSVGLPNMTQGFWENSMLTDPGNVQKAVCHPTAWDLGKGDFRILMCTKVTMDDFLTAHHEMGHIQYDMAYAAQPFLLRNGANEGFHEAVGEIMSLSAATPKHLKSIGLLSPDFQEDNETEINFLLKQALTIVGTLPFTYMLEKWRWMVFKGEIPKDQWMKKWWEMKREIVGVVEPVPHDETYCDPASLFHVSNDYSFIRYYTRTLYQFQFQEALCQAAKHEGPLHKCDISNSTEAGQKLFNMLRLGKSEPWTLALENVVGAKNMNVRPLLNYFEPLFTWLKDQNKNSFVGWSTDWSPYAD

[4] = molecular target: human ACE2 peptidase domain (amino acids 1-615 of human ACE2 with C-terminal His-10 and Avi tags) (human) (UniProt Q9BYF1); test: biolayer interferometry; compared with a literature value for monomeric RBD

Compound | eliminated unchanged in faeces [1] | apparent terminal t½ in plasma and liver ([1]; IV bolus of LNP) | drop of concentration in liver ([1]; IV bolus of LNP) | drop of concentration in plasma ([1]; IV bolus of LNP) | rate of metabolism in vitro and in vivo [2] | half-life ([1]; rat, plasma and liver, IV bolus of LNP, read-out: apparent terminal t½ in plasma and liver) | Kd [3] | fold of the reported KD of monomeric RBD [4]
CCCCCCCCCCCCCCN(CCCCCCCCCCCCCC)C(=O)COCCOCCOCCOCCOCCOCCOCCOCCOCCOCCOCCOCCOCCOCCOCCOCCOCCOCCOCCOCCOCCOCCOCCOCCOCCOCCOCCOCCOCCOCCOCCOCCOCCOCCOCCOCCOCCOCCOCCOCCOCCOCCOCCOCCOCCOC [ALC-0159, 2-[(polyethylene glycol)-2000]-N,N-ditetradecylacetamide] | 50% | 48 to 72 h | > 250 fold | approximately 8000 fold | relatively slowly | – | – | –
CCCCCCCCC(CCCCCC)C(=O)OCCCCCCN(CCCCO)CCCCCCOC(=O)C(CCCCCC)CCCCCCCC (stereo not drawn) [ALC-0315, ((4-hydroxybutyl)azanediyl)bis(hexane-6,1-diyl)bis(2-hexyldecanoate)] | little to no unchanged material | – | ~4 fold | approximately 7000 fold | relatively slowly | 144 to 192 h | – | –
RBD-foldon trimer encoded by BNT162b1 (SARS-CoV-2 spike receptor-binding domain fused at its C-termi (other; other documents disagree on this pair) | – | – | – | – | – | – | 5 pM | 1000 fold
